Where two headings read alike, the source gives them in different places.
What was measured:
[1] = Solubility / precipitation; assay type: physicochemical
[2] = Gastric tolerability: values of the lesions found on the gastric mucosa; details: for value of the lesions on the gastric mucosa / value of the lesions on the gastric mucosa, Media (mean): oral t.i.d., 100 mg/kg iron; for value of the lesions on the gastric mucosa, Media (mean): mean of 7 animals
Method: (§1) In the aim of correctly evaluating activity, bio-availability and toxicity of the products under exam, they were suitably vehicled by means of dissolution in mixtures of H2 O/propylene glycol/sorbitol, in equal proportions, so as to obtain for the experimental tests solutions at identical Fe^+++ titre (4 mg/ml).

[3] = Acute toxicity after oral administration in the male rat; assay type: in vivo; details: for N° DEAD ANIMALS: 10 animals
Source text: ACUTE TOXICITY OF UB 1004 AFTER ORAL
ADMINISTRATION IN THE MALE RAT

[4] = Antianemic activity (iron-deficient diet); assay type: in vivo, rats; details: iron-deficient diet + substance
Method: as §1

[5] = rat, in vivo, po, 100 mg/kg
Method: as §1

[6] = background; cited from earlier work
[7] = oral, background; cited from earlier work
[8] = oral, 25 mg/Kg Fe = 367.5 mg/Kg
[9] = oral, 100 mg/Kg Fe = 1470 mg/Kg
[10] = oral, 200 mg/Kg Fe = 2940 mg/Kg
[11] = oral, 400 mg/Kg Fe = 5880 mg/Kg

lysozyme glutarate: lysozyme acylated with glutaric anhydride, Example 1(a)
Solubility at pH 3 ([1]; pH 3): nil | Solubility at pH 8 [1]: Complete

O=S(=O)([O-])[O-].[Fe+2] [FERROUS SULFATE, Ferrous Sulphate, reference compound]
value of the lesions on the gastric mucosa ([2]; animal 1): 1 | value of the lesions on the gastric mucosa ([2]; animal 2): 2 | value of the lesions on the gastric mucosa ([2]; animal 3): 1 | value of the lesions on the gastric mucosa ([2]; animal 4): 1 | value of the lesions on the gastric mucosa ([2]; animal 5): 3 | value of the lesions on the gastric mucosa ([2]; animal 6): 1 | value of the lesions on the gastric mucosa ([2]; animal 7): 3 | gastric damage ([2]; conclusions): harmful at the gastric level | value of the lesions on the gastric mucosa, Media (mean) [2]: 1.70 | toxicity ([3]; conclusions): considerably toxic | ERYTHROCYTES ([4]; 7 (time unit not given)): 7.07 ± 0.76 10^6 /mm^3 | HEMOGLOBIN ([4]; 7 (time unit not given)): 14.38 ± 1.91 g/100 ml | SYDEREMIA ([4]; 7 (time unit not given)): 247.6 ± 87.0 μg/100 ml | ERYTHROCYTES ([4]; 14 (time unit not given)): 7.34 ± 0.46 10^6 /mm^3 | HEMOGLOBIN ([4]; 14 (time unit not given)): 15.63 ± 0.33 g/100 ml | SYDEREMIA ([4]; 14 (time unit not given)): 198.4 ± 52.2 μg/100 ml | ERYTHROCYTES ([4]; 21 (time unit not given)): 6.94 ± 0.42 10^6 /mm^3 | HEMOGLOBIN ([4]; 21 (time unit not given)): 14.09 ± 1.50 g/100 ml | SYDEREMIA ([4]; 21 (time unit not given)): 171.0 ± 19.9 μg/100 ml

Ferritin
value of the lesions on the gastric mucosa, Media (mean) [5]: 0.28 | water solubility [6]: hydrosoluble | gastrointestinal side-effects [7]: does not have gastrointestinal side-effects | HEMOGLOBIN ([4]; 7 (time unit not given)): 13.88 ± 0.93 g/100 ml | SYDEREMIA ([4]; 7 (time unit not given)): 196.3 ± 88.9 μg/100 ml | ERYTHROCYTES ([4]; 14 (time unit not given)): 6.99 ± 0.58 10^6 /mm^3 | HEMOGLOBIN ([4]; 14 (time unit not given)): 15.46 ± 0.93 g/100 ml | SYDEREMIA ([4]; 14 (time unit not given)): 217.1 ± 52.7 μg/100 ml | ERYTHROCYTES ([4]; 21 (time unit not given)): 6.99 ± 0.13 10^6 /mm^3 | HEMOGLOBIN ([4]; 21 (time unit not given)): 14.43 ± 1.12 g/100 ml | SYDEREMIA ([4]; 21 (time unit not given)): 227.6 ± 25.7 μg/100 ml

UB 1004: iron (ferric) complex of lysozyme glutarate, obtained in Example 1(b) with ferric glycerophosphate
Precipitation with (NH4)2SO4 at 30% ([1]; (NH4)2SO4 30%): Complete | Solubility at pH 8 [1]: Complete | Solubility of the precipitate with (NH4)2SO4 in water ([1]; water): Complete | value of the lesions on the gastric mucosa ([2]; animal 1): 0 | value of the lesions on the gastric mucosa ([2]; animal 2): 0 | value of the lesions on the gastric mucosa ([2]; animal 3): 0 | value of the lesions on the gastric mucosa ([2]; animal 4): 0 | value of the lesions on the gastric mucosa ([2]; animal 5): 0 | value of the lesions on the gastric mucosa ([2]; animal 6): 0 | value of the lesions on the gastric mucosa ([2]; animal 7): 0 | value of the lesions on the gastric mucosa, Media (mean) [2]: 0 | % DEATH-RATE [3, 8]: 0.00% | N° DEAD ANIMALS [3, 8]: 0 | % DEATH-RATE ([3]; oral, 50 mg/Kg Fe = 735 mg/Kg): 0.00% | N° DEAD ANIMALS ([3]; oral, 50 mg/Kg Fe = 735 mg/Kg): 0 | % DEATH-RATE [3, 9]: 0.00% | N° DEAD ANIMALS [3, 9]: 0 | % DEATH-RATE [3, 10]: 0.00% | N° DEAD ANIMALS [3, 10]: 0 | % DEATH-RATE [3, 11]: 0.00% | N° DEAD ANIMALS [3, 11]: 0 | DL50 ([3]; oral, male rat, up to 400 mg/Kg Fe): NOT DETERMINABLE | ERYTHROCYTES ([4]; 7 (time unit not given)): 7.20 ± 0.58 10^6 /mm^3 | HEMOGLOBIN ([4]; 7 (time unit not given)): 14.43 ± 1.13 g/100 ml | SYDEREMIA ([4]; 7 (time unit not given)): 178.6 ± 57.1 μg/100 ml | ERYTHROCYTES ([4]; 14 (time unit not given)): 7.20 ± 0.48 10^6 /mm^3 | HEMOGLOBIN ([4]; 14 (time unit not given)): 15.70 ± 1.00 g/100 ml | SYDEREMIA ([4]; 14 (time unit not given)): 177.5 ± 42.8 μg/100 ml | ERYTHROCYTES ([4]; 21 (time unit not given)): 7.13 ± 0.26 10^6 /mm^3 | HEMOGLOBIN ([4]; 21 (time unit not given)): 15.58 ± 0.97 g/100 ml | SYDEREMIA ([4]; 21 (time unit not given)): 184.3 ± 31.8 μg/100 ml
